For data set [1], the system named is CYP81E gene (SEQ ID NO: 9). Briefly: tembotrione metabolism in yeast expressing CYP81E. The class given is in vitro ADME, Amaranthus palmeri. The conditions noted are these: CYP81E SEQ ID NO: 9 vector; 150 μL of 1000 μM tembotrione, 24 h, 30 C; FIG. 3F. The procedure:
(§1) A functional validation of the candidate genes was conducted in a yeast system. In brief, the yeast lines WAT11 and WAT21 express the plant cytochrome P450 reductase genes ATR1 and ATR2, respectively, and have the endogenous yeast cytochrome P450 reductase gene knocked out. The sequences of the three CYP72A219 genes and the CYP81E gene were codon-optimized for expression in yeast and synthesized by Genewiz in vector pUC57. The genes were cloned into yeast expression vector pYES2 with a galactose inducible promoter, a uracil synthesis gene, and an ampicillin resistance gene. The vectors were first transformed into E. coli and selected on ampicillin, followed by sequencing to confirm the correct insertion of the P450 gene sequence. Plasmid was extracted from transformed colonies for transformation into yeast lines WAT11 and WAT21 using a LiAc protocol and plated on glucose-containing media lacking uracil to select for transformed cells. The empty pYES2 vector was included as a negative control, and a vector containing the Nsf1 gene from corn was included as a positive control known to metabolize the HPPD-inhibiting herbicides mesotrione and tembotrione. […] The incubation solution was then centrifuged, and the supernatant was analyzed using LC/MS-MS to measure parent tembotrione and hydroxy tembotrione metabolites. […]

The subject of data set [2] is CYP72A219 gene from chromosome 16 (SEQ ID NO: 7). In words: tembotrione metabolism in yeast expressing CYP72A219 (c). The note with it: SEQ ID NO: 7 vector; 150 μL of 1000 μM tembotrione, 24 h, 30 C; FIG. 3D-E. The class given is in vitro ADME, Amaranthus palmeri. The procedure: as §1
For data set [3], the system named is CYP81E and CYP72A219 genes. Details: species or system Amaranthus palmeri. The conditions noted are these: in vivo.
The subject of data set [4] is variant allele of this CYP72A219 gene (SEQ ID NO: 3). Briefly: tembotrione metabolism in yeast expressing variant allele of CYP72A219 (a). Type of data set: in vitro ADME, Amaranthus palmeri. The conditions noted are these: variant allele SEQ ID NO: 3 vector; 150 μL of 1000 μM tembotrione, 24 h, 30 C. The procedure: as §1
Data set [5] relates to CYP72A219 (a), CYP72A219 (b), CYP72A219 (c) and CYP81E genes. On the set-up: species or system Amaranthus palmeri. The note with it: in vivo.
Data set [6] concerns second CYP72A219 gene from chromosome 4 (SEQ ID NO: 5). Briefly: tembotrione metabolism in yeast expressing CYP72A219 (b). The class given is in vitro ADME, Amaranthus palmeri. The conditions noted are these: SEQ ID NO: 5 vector; 150 μL of 1000 μM tembotrione, 24 h, 30 C; FIG. 3D-E. The procedure:
as §1

Data set [7] concerns Palmer amaranth (Amaranthus palmeri). The note with it: in vivo; cited from earlier work.
Data set [8] deals with CYP72A219 gene from chromosome 4 (MAKER-25717; SEQ ID NO: 1). In words: tembotrione metabolism in yeast expressing CYP72A219 (a). Type of data set: in vitro ADME, Amaranthus palmeri. The note with it: CYP72A219 SEQ ID NO: 1 vector; 150 μL of 1000 μM tembotrione, 24 h, 30 C; FIG. 3C. The procedure: as §1
The test system of another data set is Palmer amaranth. In words: tembotrione dose response (plant survival) of Palmer amaranth survey populations. The conditions noted are these: eleven survey populations; FIG. 4A. Type of data set: in vivo, Amaranthus palmeri. The procedure: A survey of Palmer amaranth in the US was conducted to identify additional populations resistant to the HPPD inhibiting herbicide tembotrione. A tembotrione dose response was conducted to compare the response of the survey populations to a known sensitive population. The population USA 12001 (the population used for all previous work to identify CYP450 genes) was used as a known resistant reference.

For a further data set, the system named is CYP72A219 (a). On the set-up: species or system Amaranthus palmeri. The note with it: in vivo. The procedure:
(§2) Transcript abundance was measured in the 11 resistant survey populations for genes CYP72A219 (a), CYP81E, and a CYP not implicated in herbicide resistance (FIG. 4B-D). Known sensitive populations HPPD S and HPPD S 12021 were included as references, as was known resistant population HPPD R 12001, the population previously characterized for increased expression of CYP72A219 (a) and CYP81E. Relative transcript abundance was quantified using qRT-PCR on cDNA synthesized from RNA extracted from individuals before and 6 h after tembotrione treatment, using normalization genes as previously described.

Data set [9] has as its system a CYP not implicated in herbicide resistance. Details: species or system Amaranthus palmeri. The conditions noted are these: in vivo. The procedure:
as §2

A further data set has as its system CYP81E. On the set-up: species or system Amaranthus palmeri. The note with it: in vivo. The procedure:
as §2

Data set [10] relates to yeast lines WAT11 and WAT21. In words: tembotrione metabolism in yeast with empty pYES2 vector (negative control). The class given is in vitro ADME. The conditions noted are these: 150 μL of 1000 μM tembotrione, 24 h, 30 C, FIG. 3A. The procedure:
as §1

Entries after “also recorded” stand apart in the source; their conditions may differ.

As for `CS(=O)(=O)c1ccc(C(=O)C2C(=O)CCCC2=O)c(Cl)c1COCC(F)(F)F` [tembotrione, 2-[2-chloro-4-(methylsulfonyl)-3-[(2,2,2,-tri-fluoroethoxy)methyl]benzoyl]-1,3-cyclo-hexanedione], the formation of hydroxy-tembotrione result in [1], in [2] and in data set [6] was “did not show formation of hydroxy-tembotrione” in each case. For the same molecule, the “expression of both genes after treatment with tembotrione (qRT-PCR)” value in data set [3] was “high expression of both genes”. Further, the results for the “formation of hydroxy-tembotrione metabolite” value in [4] and in [8] were “also showed formation of the hydroxy-tembotrione metabolite” and “showed formation of the hydroxy-tembotrione metabolite; also recorded: produced the same hydroxy-tembotrione metabolite as produced in planta”, respectively. Also, in data set [5], the “expression of all four cytochrome P450 genes following tembotrione treatment” value is reported as “induced”. In addition, the “detoxification to 4-hydroxy tembotrione metabolite followed by glycosylation” value in data set [7] is “rapidly detoxify”. The “formation of 4-hydroxy tembotrione metabolites in NES” value in [7] is “at a slower rate than in NER”. For the same molecule, the “rate of hydroxylation, NER compared with NES” value in data set [7] is listed as “more rapidly in NER”. The “LD50 (dose of tembotrione required to cause 50% mortality in the population) relative to reference sensitive population” value in the data set on Palmer amaranth was “significantly higher LD50”. The “CYP72A219 (a) expression following tembotrione treatment” value in the data set on CYP72A219 (a) is “increased CYP72A219 (a) expression”. In addition, in data set [9], the “expression of CYP unrelated to herbicide resistance before or after tembotrione treatment” value is listed as “had not increased expression in any populations”. Besides, the “CYP81E expression constitutively or after tembotrione treatment” value with CYP81E is on record as “No resistant populations from the survey had increased expression of CYP81E”. The “parent tembotrione and hydroxy tembotrione metabolites in supernatant (LC/MS-MS)” value in data set [10] was “only intact tembotrione and no metabolites; also recorded: did not detoxify tembotrione”.

The record behind these values is patent US20250066807A1, “CYP72A219 GENES CONFERRING HERBICIDE TOLERANCE” (COLORADO STATE UNIVERSITY RESEARCH FOUNDATION, priority 2021, published 2025).
